# Measured values: patent US9901579B2, “Compositions comprising phosphodiesterase inhibitors for use in the treatment of a solid tumor in a human patient” (Sartar Therapeutics Ltd, priority 2013, dated 2018)
# Counter-ions that a name gives are not always drawn.
# Assays:
# Assay type in all cases: cell-based, human
# [1] = test system: GIST cell cultures (GIST48 and GIST882); assay: xCELLigence System / RTCA DP proliferation analysis; conditions: 10 μmol/L or higher concentration
# Source text: Four different PDE3-inhibitors were used to block the activity of PDE3 enzymes and two kinase-inhibitors to block the activity of KIT and PDGFRA. Cilostazol, milrinone and amrinone were purchased from Sigma (St Louis, Mo., USA) and anagrelide hydrochloride was purchased from Tocris Bioscience (Bristol, UK). […] All other inhibitors were reconstituted in DMSO. In a preliminary analysis, multiple drug concentrations (from 0 to 100 μmol/L) were used to identify effective PDE3 inhibitor doses in the GIST cell lines. Effects on proliferation were analysed using xCELLigence System and the RTCA DP instrument (Acea Biosciences, San Diego, Calif., USA). […] Cell progression to apoptosis after anagrelide hydrochloride treatment was analysed in eight duplicate wells with a Click-iT TUNEL Alexa Fluor 488 Imaging Assay (Invitrogen, Carlsbad, Calif., USA) according to the manufacturer's instructions. Progression to apoptosis was measured after 48 hours and after 96 hours of drug treatments. Cell proliferation was examined by the MTT assay (Roche Diagnostics, Indianapolis, Ind., USA) and the xCELLigence System using the RTCA DP instrument (Acea Biosciences). […] At the end of the incubation, cell proliferation was analyzed from eight duplicate wells by adding 10 μL of the MTT reagent into each well and incubating at 37° C. for four hour. The plates were read with a Multiscan EX Microplate photometer (Thermo Scientific, Rockford, Ill., USA) at the wavelength of 540 nm. For the xCELLigence proliferation assay GIST48 and GIST882 cells were plated at a density of 2.5×10^4 cells/well. Before plating GIST882 cells, the wells were thin coated with Collagen I Rat Tail (Invitrogen, Carlsbad, Calif., USA) according to the manufacturer's instructions using 7.5 μg/mL final collagen concentration.
# [2] = test system: LPS141 liposarcoma cell line; assay: MTT cell proliferation assay, LPS141; conditions: 10 μmol/L, 96 hours (four day culture)
# Experimental: (§1) GIST882 is a primary human GIST cell line with a homozygous missense mutation in KIT exon 13, encoding a […] mutant KIT oncoprotein (Tuveson, D. A. 2001). […] GIST48 has a primary exon 11 missense mutation and a secondary exon 17 missense mutation (Bauer, S. 2006). LPS141 is a liposarcoma cell line that is established from patient derived de-differentiated liposarcoma (Snyder, E. L. 2009). The cell lines were cultured in a RPMI 1640 medium (GIBCO, California USA) supplemented with 20% fetal bovine serum (FBS) and 2% penicillin/streptomycin. Four different PDE3-inhibitors were used to block the activity of PDE3 enzymes and two kinase-inhibitors to block the activity of KIT and PDGFRA. […] Effects on proliferation were analysed using xCELLigence System and the RTCA DP instrument (Acea Biosciences, San Diego, Calif., USA). […] Cell progression to apoptosis after anagrelide hydrochloride treatment was analysed in eight duplicate wells with a Click-iT TUNEL Alexa Fluor 488 Imaging Assay (Invitrogen, Carlsbad, Calif., USA) according to the manufacturer's instructions. Progression to apoptosis was measured after 48 hours and after 96 hours of drug treatments. […] At the end of the incubation, cell proliferation was analyzed from eight duplicate wells by adding 10 μL of the MTT reagent into each well and incubating at 37° C. for four hour. […]
# GIST48 cells = assay: Click-iT TUNEL apoptosis assay, GIST48; conditions: for apoptotic GIST48 cells: anagrelide hydrochloride 10 μmol/L, imatinib 0.5 μmol/L
# Experimental: (§2) GIST882 is a primary human GIST cell line with a homozygous missense mutation in KIT exon 13, encoding a […] mutant KIT oncoprotein (Tuveson, D. A. 2001). […] GIST48 has a primary exon 11 missense mutation and a secondary exon 17 missense mutation (Bauer, S. 2006). LPS141 is a liposarcoma cell line that is established from patient derived de-differentiated liposarcoma (Snyder, E. L. 2009). The cell lines were cultured in a RPMI 1640 medium (GIBCO, California USA) supplemented with 20% fetal bovine serum (FBS) and 2% penicillin/streptomycin. Four different PDE3-inhibitors were used to block the activity of PDE3 enzymes and two kinase-inhibitors to block the activity of KIT and PDGFRA. Cilostazol, milrinone and amrinone were purchased from Sigma (St Louis, Mo., USA) and anagrelide hydrochloride was purchased from Tocris Bioscience (Bristol, UK). […] All other inhibitors were reconstituted in DMSO. […] Effects on proliferation were analysed using xCELLigence System and the RTCA DP instrument (Acea Biosciences, San Diego, Calif., USA). […] Cell progression to apoptosis after anagrelide hydrochloride treatment was analysed in eight duplicate wells with a Click-iT TUNEL Alexa Fluor 488 Imaging Assay (Invitrogen, Carlsbad, Calif., USA) according to the manufacturer's instructions. Progression to apoptosis was measured after 48 hours and after 96 hours of drug treatments.
# GIST882 cells [3] = assay: MTT cell proliferation assay, GIST882; conditions: 10 μmol/L, 96 hours (four day culture)
# Experimental: as §1
# GIST882 cells [4] = assay: Click-iT TUNEL apoptosis assay, GIST882; conditions: anagrelide hydrochloride 10 μmol/L, imatinib 0.5 μmol/L
# Experimental: as §2
structure (smiles),measurement,setting,value
O=C1CCc2cc(OCCCCc3nnnn3C3CCCCC3)ccc2N1 [cilostazol],anti-proliferative effect on GIST cell cultures,[1],did not influence cell proliferation
Nc1cc(-c2ccncc2)c[nH]c1=O [amrinone],anti-proliferative effect on GIST cell cultures,[1],some anti-proliferative effect
Cc1[nH]c(=O)c(C#N)cc1-c1ccncc1 [milrinone],anti-proliferative effect on GIST cell cultures,[1],did not influence cell proliferation
"O=C1CN2Cc3c(ccc(Cl)c3Cl)N=C2N1 [anagrelide hydrochloride, 6,7-dichloro-1,5-dihydroimidazo[2,1-b]quinazolin-2(3H)-one]",effect on LPS141 cell growth in comparison with DMSO,[2],the only PDE3 inhibitor that had an effect
same,apoptotic GIST48 cells,GIST48 cells; after 48 hours,0.6%
same,apoptotic GIST48 cells,GIST48 cells; after 96 hours,1%
same,DNA fragmentation in GIST48 cells,GIST48 cells; anagrelide hydrochloride treatment,only slight DNA fragmentation
same,anti-proliferative effect on GIST cell cultures,[1],some anti-proliferative effect
same,effect on GIST882 cell growth in comparison with DMSO,GIST882 cells [3],the only PDE3 inhibitor that had an effect
same,apoptotic GIST882 cells,GIST882 cells [4]; after 48 hours,22%
same,apoptotic GIST882 cells,GIST882 cells [4]; after 96 hours,47%
